Measurements as given in patent US4634702A, “Quinoxalinemethanol compounds for combatting swine dysentery and as growth promoting factors, method of preparation, and compositions containing them” (priority 1983, dated 1987).
Values after ≈ are worked out from the molar mass of the structure shown.

Experiments:
Treponema hyodysenteriae = assay: in vitro minimum inhibitory concentration / activity against Treponema hyodysenteriae; type: cell-based
Protocol: Compound G 8 has been tested "in vitro" against Treponema hyodysenteriae by a known technique. The minimum inhibitory concentration (the lowest concentration of compound in a dilution series where growth is inhibited) was 0.1 μg/ml.

[1] = Acute toxicity of G 8 in the guinea pig by oral administration; type: in vivo
Protocol: (§1) Furthermore, G8 compound was tested for acute toxicity by several modes of administration in four species, namely mouse, rat, guinea pig and rabbit. […] The test results are given below in tables 1, 2, 3 and 4.
Acute toxicity of G 8 in the guinea pig by oral administration

swine dysentery = swine dysentery in swine herd fed G 8 in rations; type: in vivo; details: 400 g/ton in rations, herd with dysentery
Protocol: Compound G 8 is mixed with swine feed rations at a level of 200 g/ton and was fed to swine housed in an area where there has been a previous outbreak of swine dysentery. Another herd was housed in a similar area, where there has been a previous outbreak of dysentery. They were fed the same rations as the first herd, but with no G 8 or other drug.
Many members of the herd developed symptoms of dysentery. G 8 was then added with the rations at a level of 400 g/ton.

[2] = Acute toxicity of G 8 in the rabbit by esophageal administration; type: in vivo
Protocol: as §1
Acute toxicity of G 8 in the rabbit by esophageal administration

[3] = Chronic toxicity in female mice; type: in vivo
Text: Chronic toxicity has been studied in female mice.

[4] = acute toxicity by several modes of administration in four species (overall); type: in vivo, guinea pig and rabbit; details: mouse, rat, guinea pig, rabbit
Protocol: as §1

[5] = growth promotion in baby-swines fed G 8 in rations; type: in vivo, swine
Protocol: The effect of compound G 8 was tested in feed rations for baby-swines.
Compound G 8 was added at a dosage level of 100 g/ton of feed. Five replicate groups of 10 animals (5 males and 5 females), age one day, were fed the ration containing G 8 and compared to 5 replicate groups of animals (5 males and 5 females) which received the same ration but without G 8.
The test period was 28 days.

[6] = Subacute toxicity of G 8 in the mouse; type: in vivo; details: for SGPT / SGOT: 1 g/kg/day, 24 hrs. after last dose
Protocol: (§2) In view of the favorable acute toxicity data, compound G 8 was administered orally in sub-acute, but relatively large doses, to mice and rats for 15 days.
Subacute toxicity of G 8 in the mouse
Daily dose: 500 mg. G 8 by gastric gavage for 15 days
Daily dose: 1 g/kg/day for 15 days
b. SGOT and SGPT (24 hrs. after last dose)

[7] = Subacute toxicity of G 8 in female rats; type: in vivo, rat; details: 2 g/kg/day, gastric gavage, 21 days
Protocol: as §2
Subacute toxicity of G 8 in female rats
Daily dose: […] of G 8 in female rats by gastric
Daily dose: 2 g/kg/day of G 8 by gastric gavage for 21 days

[8] = Acute toxicity of G 8 in female mice; type: in vivo, mouse
Protocol: as §1
Acute toxicity of G 8 in female mice

[9] = teratogenetic study with male and female mice and rats; type: in vivo
Protocol: Furthermore, teratogenetic study was conducted with male and female mice and rats.

[10] = Acute Toxicity of G 8 in the Rat; type: in vivo; details: for Dead/Treated within 21 days / Body Weight (m ± SEM), Termination: first experiment
Protocol: as §1
Acute Toxicity of G 8 in the Rat

**Q.** What does the source list for `COc1ccc(O)c(C(O)c2c[n+]([O-])c3ccccc3[n+]2[O-])c1` (centres unmarked) [G 8, quinoxalyl-N^1,N^4-dioxide-2-hydroxy-5-methoxy-phenylcarbinol]?
**A.** action against Treponema hyodysenteriae (specificity) (Treponema hyodysenteriae): clearly specific action against Treponema hyodysenteriae; MIC (Treponema hyodysenteriae; Brachyspira hyodysenteriae, read-out: minimum inhibitory concentration): 0.1 µg/mL (≈ 0.318 µM); Dead/Treated within 21 days ([1]; 500 mg/kg): 0/4; Dead/Treated within 21 days ([1]; 1000 mg/kg): 1/4; Dead/Treated within 21 days ([1]; 2000 mg/kg): 5/6; Dead/Treated within 21 days ([1]; 4000 mg/kg): 6/6; dysentery symptoms of diseased members (swine dysentery): the diseased members became free from dysentery symptoms; spread of the disease (swine dysentery): The spread of the disease was halted; Dead/Treated within 7 days ([2]; 500 mg/kg): 0/2; Dead/Treated within 7 days ([2]; 1000 mg/kg): 0/4; Body weight (m ± SE), Termination ([2]; 1000 mg/kg, start 2037 ± 104.3, vehicle 2135 ± 75 to 2262 ± 215): 1922.5 ± 71.5 g; Dead/Treated within 7 days ([2]; 2000 mg/kg): 0/2; Body weight, Termination ([2]; 2000 mg/kg, start 2250-2150): 2180 + 2140 g; Chronic toxicity [3]: very satisfactory; order of acute toxicity [4]: low order toxicity; order of acute toxicity ([4]; listed as G8): low order of toxicity; Improvement, % (body weight gain) ([5]; 100 g/ton of feed, 28 days, combined average vs ration without G 8): 3.1%; Improvement, % (feed/gain ratio) ([5]; 100 g/ton of feed, 28 days, vs ration without G 8): 2.8%; Feed/gain ratio ([5]; 100 g/ton of feed, 28 days, without G 8: 1.82): 1.77; Body weight gain/swine, Females ([5]; 100 g/ton of feed, 28 days, without G 8: 5740 g): 5880 g; Body weight gain/swine, Combined average ([5]; 100 g/ton of feed, 28 days, without G 8: 6000): 6190; Body weight gain/swine, Males ([5]; 100 g/ton of feed, 28 days, without G 8: 6150 g): 6480 g; growth promoting action ([5]; qualitative statement): effective growth promoting factor; Dead/Treated ([6]; 500 mg/kg/day, gastric gavage, 15 days): 0/10; Fresh organ to body weight ratio, Kidneys ([6]; 500 mg/kg/day, gastric gavage, 15 days, vehicle 1.4 ± 0.1): 1.5 ± 0.1; Fresh organ to body weight ratio, Liver ([6]; 500 mg/kg/day, gastric gavage, 15 days, vehicle 5.2 ± 0.2): 5.9 ± 0.3; % Body weight change (m ± SE) ([6]; 500 mg/kg/day, gastric gavage, 15 days, vehicle 20.4 ± 4.2): -8.1 ± 3.9%; Dead/Treated ([6]; 1 g/kg/day for 15 days, oral, in adraganth gum): 3/12; % Body weight change ([6]; 1 g/kg/day for 15 days, oral, in adraganth gum, vehicle 25.04 ± 1.18): 16.27 ± 1.31%; Dead/Treated ([6]; 1 g/kg/day for 15 days, oral, in water): 2/12; % Body weight change ([6]; 1 g/kg/day for 15 days, oral, in water, vehicle 24.54 ± 0.64): 18.5 ± 0.75%; SGPT ([6]; oral, in adraganth gum, vehicle 6): 10 Units/ml; SGOT ([6]; oral, in adraganth gum, vehicle 119): 132 Units/ml; SGPT ([6]; oral, in water, vehicle 4): 9 Units/ml; SGOT ([6]; oral, in water, vehicle 116): 124 Units/ml; Average percent weight of fresh organs (m ± SE), Lung ([7]; 5 animals, NS, vehicle 0.85 ± 0.06): 1.08 ± 0.09%; Average percent weight of fresh organs (m ± SE), Kidneys ([7]; 5 animals, NS, vehicle 0.95 ± 0.04): 1.04 ± 0.3%; Average percent weight of fresh organs (m ± SE), Liver ([7]; 5 animals, vehicle 3.45 ± 0.07): 4.54 ± 0.10%; Dead/Treated ([7]; death caused by a mistake in esophagus incannulation): 1/6; Body weight in g (m ± SE), Termination ([7]; start 204.1 ± 2.0, vehicle 200.0 ± 4.1 to 233.2 ± 5.1): 210.6 ± 9.6 g; Dead/Treated animals ([8]; endoperitoneal, 250 mg/kg, after 7 days): 0/18; Dead/Treated animals ([8]; endoperitoneal, 500 mg/kg, after 7 days): 6/12; Dead/Treated animals ([8]; endoperitoneal, 1000 mg/kg, after 2 days): 6/6; Dead/Treated animals ([8]; endoperitoneal, 1000 mg/kg, after 7 days): 6/6; Dead/Treated animals ([8]; endoperitoneal, 2000 mg/kg, after 1 day): 6/6; Dead/Treated animals ([8]; endoperitoneal, 2000 mg/kg, after 7 days): 6/6; Dead/Treated animals ([8]; oral, 1000 mg/kg, after 7 days): 0/12; Dead/Treated animals ([8]; oral, 2000 mg/kg, after 7 days): 0/12; Dead/Treated animals ([8]; oral, 4000 mg/kg, after 4 days): 1/12; Dead/Treated animals ([8]; oral, 4000 mg/kg, after 7 days): 1/12; malformations [9]: No malformations in either group were observed; number of young delivered live at birth [9]: comparable with controls; Dead/Treated within 7 days ([10]; cumulative data regardless of animal sex, intraperitoneal, 500 mg/kg): 4/16; Dead/Treated within 7 days ([10]; cumulative data regardless of animal sex, oral, 4000 mg/kg): 0/16; Dead/Treated within 21 days ([10]; female, endoperitoneal, 500 mg/kg): 2/4; Dead/Treated within 21 days ([10]; female, oral, 4000 mg/kg): 0/4; Body Weight (m ± SEM), Termination ([10]; female, oral, 4000 mg/kg, start 201.2 ± 4.2, vehicle 189.2 ± 3.9 to 230.0 ± 10.5): 238.2 ± 12.1 g; Dead/Treated within 21 days ([10]; male, endoperitoneal, 500 mg/kg): 1/4; Body Weight (m ± SEM), Termination ([10]; male, endoperitoneal, 500 mg/kg, start 234.0 ± 6.2, vehicle 230.0 ± 5.7 to 324.0 ± 8.7): 314.3 ± 10.3 g; Dead/Treated within 21 days ([10]; male, oral, 4000 mg/kg): 0/4; Body Weight (m ± SEM), Termination ([10]; male, oral, 4000 mg/kg, start 234.5 ± 13.8, vehicle 233.7 ± 3.7 to 331.0 ± 0.5): 288.7 ± 13.8 g; Dead/Treated within 7 days ([10]; second experiment, female, intraperitoneal, 500 mg/kg): 0/4; Body weight (±SE), Termination ([10]; second experiment, female, intraperitoneal, 500 mg/kg, start 232.5 ± 5.9): 218.2 ± 7.0 g; Dead/Treated within 7 days ([10]; second experiment, female, oral, 4000 mg/kg): 0/4; Body weight (±SE), Termination ([10]; second experiment, female, oral, 4000 mg/kg, start 252.0 ± 16.6): 253.5 ± 12.1 g; Dead/Treated within 7 days ([10]; second experiment, male, intraperitoneal, 500 mg/kg): 2/4; Dead/Treated within 7 days ([10]; second experiment, male, oral, 4000 mg/kg): 0/4; Body weight (±SE), Termination ([10]; second experiment, male, oral, 4000 mg/kg, start 222.5 ± 6.2): 231.7 ± 15.7 g
